In general, IC50 refers to the midpoint of a concentration-inhibition curve.

Data on nine compounds can be found in patent US20260327264A1, “PEPTIDE INHIBITORS OF INTERLEUKIN-23 RECEPTOR” (Zealand Pharma A/S, priority 2023, published 2026).

Experiment [1] deals with IL-23 mediated STAT3 signalling (DB cells). As to the kind of experiment: Functional inhibition of IL-23 mediated STAT3 signalling (phospho-STAT3 Tyr705) in DB cells. It is filed as cell-based, human. Particulars: for IC50: Table 3-2, EC80 of hIL-23, read-out: hIL-23 (pSTAT3) antagonist IC50; for hIL-23 (pSTAT3) antagonist % inhibition: Table 3-2, maximal inhibitory response, EC80 of hIL-23. The text has this:
Upon binding of IL-23, the IL-23R forms a heterodimer signalling complex together with IL-12R β1, which through the JAK2/STAT3 pathway promotes phosphorylation of STAT3 to form phospho-STAT3.
For compounds tested in this assay, the response was normalized relative to control values to calculate the IC50 and maximal inhibitory response from a concentration response curve of the compound in presence of a fixed concentration of human IL-23.
The assay procedure was as follows. […] Following preincubation of the DB cells with inhibitor for 15 min in a cell incubator (37° C., 5% CO2), 20 μL of the prepared 3× the EC80 of hIL-23 solution was added to each well and incubated for 90 min in a cell incubator (37° C., 5% CO2). For some wells buffer only or IL-23 only corresponding to the EC80 was added to obtain readouts needed for normalization. To terminate the assay, the plate was spun at 1000 G for 5 min to pellet cells, the supernatant removed using an 8-channel manual pipette, and then added 50 μL/well Complete Lysis Buffer from the MSD STAT3 kit (Cat #K150SVD, Mesoscale) to the cell pellet. To completely lyse cells to release phospho-STAT3 for detection, the plate was shaken for 10 min at room temperature (500 rpm) sealed with aluminium foil and placed at −80° C. for a minimum of 15 min. Detection of the phospho-STAT3 level in the cell lysate from the individual wells was determined using the MSD STAT3 kit (Cat #K150SVD, Mesoscale) and read on a Meso QuickPlex SQ 120 plate reader (Mesoscale).
For data analysis raw data counts from the Meso QuickPlex SQ 120 plate reader were normalized relative to the response by the EC80 of hIL-23 alone (no compound added) and the buffer level.

The target of the next experiment is T1, human IL-23R (Homo sapiens, UniProt Q5VWK5).
T1 construct: Nanoluc luciferase (Nluc); secretion signal encoded by the plasmid (not specified); expressed in transfected cells; crude membranes used in the assay
T1 sequence (Q5VWK5 22-629): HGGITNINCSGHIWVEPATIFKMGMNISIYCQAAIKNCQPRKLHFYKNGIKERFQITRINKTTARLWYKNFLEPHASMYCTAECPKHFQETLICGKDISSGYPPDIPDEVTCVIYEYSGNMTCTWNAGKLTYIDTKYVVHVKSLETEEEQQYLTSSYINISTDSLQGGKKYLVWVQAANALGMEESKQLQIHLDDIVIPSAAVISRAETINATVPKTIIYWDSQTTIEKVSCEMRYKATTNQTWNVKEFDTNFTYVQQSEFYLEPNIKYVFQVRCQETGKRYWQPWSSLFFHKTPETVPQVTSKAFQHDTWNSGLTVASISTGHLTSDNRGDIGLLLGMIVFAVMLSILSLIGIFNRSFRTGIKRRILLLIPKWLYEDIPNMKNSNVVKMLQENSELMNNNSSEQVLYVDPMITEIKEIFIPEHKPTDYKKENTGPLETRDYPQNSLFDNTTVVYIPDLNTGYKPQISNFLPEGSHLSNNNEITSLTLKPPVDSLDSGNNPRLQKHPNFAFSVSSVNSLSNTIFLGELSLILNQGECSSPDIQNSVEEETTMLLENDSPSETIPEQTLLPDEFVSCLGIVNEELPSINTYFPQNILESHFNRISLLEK
As to the kind of experiment: Binding assay: displacement of fluorophore (TAMRA)-labelled reference compound from human IL-23R (BRET, Nluc-IL23R fusion protein membranes). Particulars: for Emax: read-out: % displacement (hIL-23R binding). (In general: BRET reads energy transfer from a luciferase to a nearby fluorophore.)

*1 amine or outer side, *2 acyl side, *3 side chain or, on linkers, in order; H or OH if unused. Where a SMILES comes first, the peptide text is derived from it. Bridges are numbered along the chain shown (N, C = ends). [ ]: non-standard residue; d: D form. The star is where a group is joined. 2Nal = N[C@@H](Cc1ccc2ccccc2c1)C(=O)O; AEF = NCCOc1ccc(C[C@H](N)C(=O)O)cc1; X1 = O=C(Cc1ccc(CN[*:1])cc1)[*:2]; 3Pal = N[C@@H](Cc1cccnc1)C(=O)O; αMeL = CC(C)C[C@](C)(N)C(=O)O; CH2COCH2 = O=C(C[*:1])C[*:2]; NMeS = CN[C@@H](CO)C(=O)O; NMeA = CN[C@@H](C)C(=O)O; Pyrrolidide = C1CCN(*)C1; Dab = NCC[C@H](N)C(=O)O; Aib = CC(C)(N)C(=O)O

`CC(C)C[C@]1(C)NC(=O)[C@H](Cc2ccc3ccccc3c2)NC(=O)[C@H](Cc2ccc(OCCN)cc2)NC(=O)[C@@H]2CSCC(=O)CSC[C@H](NC(=O)[C@H](CO)NC(=O)Cc3ccc(cc3)CNC(=O)CC[C@@H](C(=O)N[C@@H](CCN)C(N)=O)NC1=O)C(=O)N[C@@H](Cc1c[nH]c3ccccc13)C(=O)N[C@@H](CCC(N)=O)C(=O)N2` [Ref 82, [4-Aminomethyl-phenylacetyl](1c)*SC(2a)WQC(2a)[Y(2-aminoethoxy)][2-Nal][2-Me-Leu]E(1c)[Dab]-[NH2], reference compound] ([X1]SCWQC[AEF][2Nal][αMeL]E[Dab]-NH2; linker 3-6 via CH2COCH2; lactam N-10): in experiment [1], the IC50 was found to be 11 nM and the “hIL-23 (pSTAT3) antagonist % inhibition” value amounted to 97%. The Emax at human IL-23R was found to be 103%.
Taken in the same sequence, the figures for `CNC(=O)[C@H](Cc1cncnc1)NC(=O)[C@H](CCN)NC(=O)[C@@H]1CCC(=O)NCc2ccc(cc2)CC(=O)N[C@@H](CO)C(=O)N[C@H]2CCC(=O)NCC[C@H](NC(=O)[C@H](CCC(N)=O)NC(=O)[C@H](Cc3c[nH]c4ccccc34)NC2=O)C(=O)N[C@@H](Cc2ccc(OCCN)cc2)C(=O)N[C@@H](Cc2ccc3ccccc3c2)C(=O)N[C@@](C)(CC(C)C)C(=O)N1` [Compound 19, [4-Aminomethyl-phenylacetyl](1c)*SE(2c)WQ[Dab](2c)[Y(2-aminoethoxy)][2-Nal][2-Me-Leu]E(1c)[Dab][3-(3,5-Pyrimidyl)-Ala]-[NHMe]] were 0.16 nM, 100% and 103%.
For `CC(C)C[C@@H]1NC(=O)[C@H](Cc2c[nH]c3ccccc23)NC(=O)[C@H](Cc2c[nH]c3ccccc23)NC(=O)[C@@H]2CSCC(=O)CSC[C@H](NC(=O)[C@H](CO)NC(=O)[C@@H](NC(=O)[C@@H](N)CC(=O)O)CCC(=O)NCCCC[C@@H](C(=O)N[C@@H](CCCNC(=N)N)C(N)=O)NC1=O)C(=O)N[C@@H](Cc1c[nH]c3ccccc13)C(=O)N[C@@H](CCC(N)=O)C(=O)N2` [Ref 4, H-DE(1c)SC(2a)WQC(2a)WWLK(1c)R-[NH2], reference compound] (HELM PEPTIDE1{D.E.S.C.W.Q.C.W.W.L.K.R.[am]}|CHEM1{[O=C(C[*:1])C[*:2]]}$PEPTIDE1,PEPTIDE1,2:R3-11:R3|PEPTIDE1,CHEM1,4:R3-1:R1|PEPTIDE1,CHEM1,7:R3-1:R2$$$V2.0) the same measures were 850 nM, 87% and 100%.
As to `CC(=O)N[C@H]1CCCCNC(=O)CC[C@@H](C(=O)N[C@@H](CCCNC(=N)N)C(N)=O)NC(=O)[C@H](CC(C)C)NC(=O)[C@H](Cc2ccc3ccccc3c2)NC(=O)[C@H](Cc2c[nH]c3ccccc23)NC(=O)[C@@H]2CSCC(=O)CSC[C@H](NC(=O)[C@H](CO)NC1=O)C(=O)N[C@@H](Cc1c[nH]c3ccccc13)C(=O)N[C@@H](CCC(N)=O)C(=O)N2` [Ref 18, [Ac]-K(1c)SC(2a)WQC(2a)W[2-Nal]LE(1c)R-[NH2], reference compound] (HELM PEPTIDE1{[ac].K.S.C.W.Q.C.W.[O=C([C@H](Cc1ccc2ccccc2c1)N[*:1])[*:2]].L.E.R.[am]}|CHEM1{[O=C(C[*:1])C[*:2]]}$PEPTIDE1,PEPTIDE1,2:R3-11:R3|PEPTIDE1,CHEM1,4:R3-1:R1|PEPTIDE1,CHEM1,7:R3-1:R2$$$V2.0), in experiment [1], the IC50 was 18 nM and the “hIL-23 (pSTAT3) antagonist % inhibition” value is on record as 97%. Also, on human IL-23R, the Emax came to 103%.
For `CC(C)C[C@]1(C)NC(=O)[C@H](Cc2ccc3ccccc3c2)NC(=O)[C@H](Cc2ccc(OCCN)cc2)NC(=O)[C@@H]2CSCC(=O)CSC[C@H](NC(=O)[C@H](CO)NC(=O)Cc3ccc(cc3)CNC(=O)CC[C@@H](C(=O)N[C@@H](CCCNC(=N)N)C(N)=O)NC1=O)C(=O)N[C@@H](Cc1c[nH]c3ccccc13)C(=O)N[C@@H](CCC(N)=O)C(=O)N2` [Ref 52, [4-Aminomethyl-phenylacetyl](1c)*SC(2a)WQC(2a)[Y(2-aminoethoxy)][2-Nal][2-Me-Leu]E(1c)R-[NH2], reference compound] ([X1]SCWQC[AEF][2Nal][αMeL]ER-NH2; linker 3-6 via CH2COCH2; lactam N-10) the same measures were 7.8 nM, 103% and 100%.
Take `CC(C)C[C@]1(C)NC(=O)[C@H](Cc2ccc3ccccc3c2)NC(=O)[C@H](Cc2ccc(OCCN)cc2)NC(=O)[C@@H]2CSCC(=O)CSC[C@H](NC(=O)[C@H](CO)NC(=O)Cc3ccc(cc3)CNC(=O)CC[C@@H](C(=O)N[C@@H](CCN)C(=O)N[C@@H](Cc3cccnc3)C(N)=O)NC1=O)C(=O)N[C@@H](Cc1c[nH]c3ccccc13)C(=O)N[C@@H](CCC(N)=O)C(=O)N2` [Ref 120, [4-Aminomethyl-phenylacetyl](1c)*SC(2a)WQC(2a)[Y(2-aminoethoxy)][2-Nal][2-Me-Leu]E(1c)[Dab][3-(3-Pyridyl)-Ala]-[NH2], reference compound] ([X1]SCWQC[AEF][2Nal][αMeL]E[Dab][3Pal]-NH2; linker 3-6 via CH2COCH2; lactam N-10): the “hIL-23 (pSTAT3) antagonist % inhibition” value in experiment [1] is reported as 101%. Further, at human IL-23R, the Emax came out at 94%.
Turning to `CC(C)C[C@]1(C)NC(=O)[C@H](Cc2ccc3ccccc3c2)NC(=O)[C@H](Cc2ccc(OCCN)cc2)NC(=O)[C@@H]2CCNC(=O)CC[C@H](NC(=O)[C@H](CO)NC(=O)Cc3ccc(cc3)CNC(=O)CC[C@@H](C(=O)N[C@@H](CCN)C(N)=O)NC1=O)C(=O)N[C@@H](Cc1c[nH]c3ccccc13)C(=O)N[C@@H](CCC(=O)N1CCCC1)C(=O)N2` [Ref 146, [4-Aminomethyl-phenylacetyl](1c)*SE(2c)W[Q(pyrrolidin)][Dab](2c)[Y(2-aminoethoxy)][2-Nal][2-Me-Leu]E(1c)[Dab]-[NH2], reference compound] ([X1]SEWE(Pyrrolidide)[Dab][AEF][2Nal][αMeL]E[Dab]-NH2; lactam 3-6, N-10), in experiment [1], the IC50 is 42 nM and the “hIL-23 (pSTAT3) antagonist % inhibition” value was determined as 98%. At human IL-23R, the IC50 is 1.2 nM and the Emax amounted to 105%.
Consider `CC(C)C[C@]1(C)NC(=O)[C@H](Cc2ccc3ccccc3c2)NC(=O)[C@H](Cc2ccc(OCCN)cc2)NC(=O)[C@@H]2CSCC(=O)CSC[C@H](NC(=O)[C@H](CO)N(C)C(=O)Cc3ccc(cc3)CNC(=O)CC[C@@H](C(=O)N[C@@H](CCN)C(N)=O)NC1=O)C(=O)N[C@@H](Cc1c[nH]c3ccccc13)C(=O)N[C@@H](CCC(N)=O)C(=O)N2` [Ref 141, [4-Aminomethyl-phenylacetyl](1c)*[N—Me-Ser]C(2a)WQC(2a)[Y(2-aminoethoxy)][2-Nal][2-Me-Leu]E(1c)[Dab]-[NH2], reference compound] ([X1][NMeS]CWQC[AEF][2Nal][αMeL]E[Dab]-NH2; linker 3-6 via CH2COCH2; lactam N-10), for which the Emax on human IL-23R worked out at 102%.
Regarding `CNC(=O)[C@H](Cc1cccnc1)NC(=O)[C@H](CCN)NC(=O)[C@@H]1CCC(=O)NCc2ccc(cc2)CC(=O)N(C)[C@@H](C)C(=O)N[C@H]2CCC(=O)NCC[C@H](NC(=O)[C@H](CCC(N)=O)NC(=O)[C@H](Cc3c[nH]c4ccccc34)NC2=O)C(=O)N[C@@H](Cc2ccc(OCCN)cc2)C(=O)N[C@@H](Cc2ccc3ccccc3c2)C(=O)NC(C)(C)C(=O)N1` [Compound 48, [4-aminomethyl-phenylacetyl(1c)*][N—Me-Ala]E(2c)WQ[Dab](2c)[Y(2-aminoethoxy)][2Nal][Aib]E(1c)[Dab][3-(3-Pyridyl)-alanyl]-[NHMe]] ([X1][NMeA]EWQ[Dab][AEF][2Nal][Aib]E[Dab][3Pal]-NHMe; lactam 3-6, N-10), at human IL-23R, the IC50 stood at 0.01 nM and the Emax came out at 96%.
